Assay results as given in US8680133B2, “Alkyl indole-3-carbinol-derived antitumor agents” (The Ohio State University Research Foundation, priority 2009, dated 2014).

Assays:
K-562 = test: NCI60 screening, Leukemia, K-562; type: cell-based, human
SR = test: NCI60 screening, Leukemia, SR; type: cell-based, human
A549/ATCC = test: NCI60 screening, Non-Small Cell Lung Cancer, A549/ATCC; type: cell-based, human
HCC-2998 = test: NCI60 screening, Colon Cancer, HCC-2998; type: cell-based, human
SF-268 = test: NCI60 screening, CNS Cancer, SF-268; type: cell-based, human
SF-539 = test: NCI60 screening, CNS Cancer, SF-539; type: cell-based, human
SNB-75 = test: NCI60 screening, CNS Cancer, SNB-75; type: cell-based, human
SK-MEL-5 = test: NCI60 screening, Melanoma, SK-MEL-5; type: cell-based, human
UACC-62 = test: NCI60 screening, Melanoma, UACC-62; type: cell-based, human
OVCAR-8 = test: NCI60 screening, Ovarian Cancer, OVCAR-8; type: cell-based, human
A498 = test: NCI60 screening, Renal Cancer, A498; type: cell-based, human
ACHN = test: NCI60 screening, Renal Cancer, ACHN; type: cell-based, human
SN12C = test: NCI60 screening, Renal Cancer, SN12C; type: cell-based, human
TK-10 = test: NCI60 screening, Renal Cancer, TK-10; type: cell-based, human
DU-145 = test: NCI60 screening, Prostate Cancer, DU-145; type: cell-based, human
T-47D = test: NCI60 screening, Breast Cancer, T-47D; type: cell-based, human
MDA-MB-468 = test: NCI60 screening, Breast Cancer, MDA-MB-468; type: cell-based, human
[1] = system: human tumor cell lines of the cancer screening panel; test: NCI 60 cell line screening, whole panel, comparison with OSU-A9; type: cell-based; conditions: OSU-A9 data not shown
[2] = Homo sapiens, read-out: LC50 (the source's name)

Cc1ccc2c(c1)c(CO)cn2S(=O)(=O)c1ccc(Cl)c([N+](=O)[O-])c1 [OSU-A9M, [1-(4-chloro-3-nitro-benzenesulfonyl)-5-methyl-1H-indol-3-yl]-methanol]
TGI (K-562): 3.03E−6 | GI50 (K-562; Homo sapiens, K562): 1.02 µM | CC50 (K-562; Homo sapiens, K562, read-out: LC50 (the source's name)): 8.96 µM | Percent Growth (K-562; Log10 Concentration −4.0): −70% | Percent Growth (K-562; Log10 Concentration −5.0): −55% | Percent Growth (K-562; Log10 Concentration −6.0): 51% | Percent Growth (K-562; Log10 Concentration −7.0): 106% | Percent Growth (K-562; Log10 Concentration −8.0): 98% | TGI (SR): 2.47E−6 | GI50 (SR; Homo sapiens): 0.371 µM | CC50 (SR; [2]): > 100 µM | Percent Growth (SR; Log10 Concentration −4.0): −46% | Percent Growth (SR; Log10 Concentration −5.0): −25% | Percent Growth (SR; Log10 Concentration −6.0): 16% | Percent Growth (SR; Log10 Concentration −7.0): 94% | Percent Growth (SR; Log10 Concentration −8.0): 85% | TGI (A549/ATCC): 4.89E−6 | GI50 (A549/ATCC; Homo sapiens): 2.05 µM | CC50 (A549/ATCC; [2]): > 100 µM | Percent Growth (A549/ATCC; Log10 Concentration −4.0): −47% | Percent Growth (A549/ATCC; Log10 Concentration −5.0): −41% | Percent Growth (A549/ATCC; Log10 Concentration −6.0): 91% | Percent Growth (A549/ATCC; Log10 Concentration −7.0): 94% | Percent Growth (A549/ATCC; Log10 Concentration −8.0): 95% | TGI (HCC-2998): 2.73E−6 | GI50 (HCC-2998; Homo sapiens): 1.42 µM | CC50 (HCC-2998; [2]): 5.23 µM | Percent Growth (HCC-2998; Log10 Concentration −4.0): −99% | Percent Growth (HCC-2998; Log10 Concentration −5.0): −100% | Percent Growth (HCC-2998; Log10 Concentration −6.0): 77% | Percent Growth (HCC-2998; Log10 Concentration −7.0): 91% | Percent Growth (HCC-2998; Log10 Concentration −8.0): 96% | TGI (SF-268): 3.01E−6 | GI50 (SF-268; Homo sapiens): 1.65 µM | CC50 (SF-268; [2]): 5.49 µM | Percent Growth (SF-268; Log10 Concentration −4.0): −100% | Percent Growth (SF-268; Log10 Concentration −5.0): −100% | Percent Growth (SF-268; Log10 Concentration −6.0): 92% | Percent Growth (SF-268; Log10 Concentration −7.0): 89% | Percent Growth (SF-268; Log10 Concentration −8.0): 86% | TGI (SF-539): 2.94E−6 | GI50 (SF-539; Homo sapiens): 1.6 µM | CC50 (SF-539; [2]): 5.42 µM | Percent Growth (SF-539; Log10 Concentration −4.0): −100% | Percent Growth (SF-539; Log10 Concentration −5.0): −100% | Percent Growth (SF-539; Log10 Concentration −6.0): 88% | Percent Growth (SF-539; Log10 Concentration −7.0): 94% | Percent Growth (SF-539; Log10 Concentration −8.0): 93% | TGI (SNB-75): 2.70E−6 | GI50 (SNB-75; Homo sapiens): 1.4 µM | LC50 (SNB-75; Homo sapiens): 5.19 µM | Percent Growth (SNB-75; Log10 Concentration −4.0): −100% | Percent Growth (SNB-75; Log10 Concentration −5.0): −100% | Percent Growth (SNB-75; Log10 Concentration −6.0): 76% | Percent Growth (SNB-75; Log10 Concentration −7.0): 83% | Percent Growth (SNB-75; Log10 Concentration −8.0): 108% | TGI (SK-MEL-5): 2.83E−6 | GI50 (SK-MEL-5; Homo sapiens): 1.5 µM | CC50 (SK-MEL-5; [2]): 5.32 µM | Percent Growth (SK-MEL-5; Log10 Concentration −4.0): −100% | Percent Growth (SK-MEL-5; Log10 Concentration −5.0): −100% | Percent Growth (SK-MEL-5; Log10 Concentration −6.0): 82% | Percent Growth (SK-MEL-5; Log10 Concentration −7.0): 92% | Percent Growth (SK-MEL-5; Log10 Concentration −8.0): 96% | TGI (UACC-62): 3.19E−6 | GI50 (UACC-62; Homo sapiens): 1.67 µM | CC50 (UACC-62; [2]): 6.07 µM | Percent Growth (UACC-62; Log10 Concentration −4.0): −93% | Percent Growth (UACC-62; Log10 Concentration −5.0): −89% | Percent Growth (UACC-62; Log10 Concentration −6.0): 90% | Percent Growth (UACC-62; Log10 Concentration −7.0): 91% | Percent Growth (UACC-62; Log10 Concentration −8.0): 93% | TGI (OVCAR-8): 3.95E−6 | GI50 (OVCAR-8; Homo sapiens): 1.93 µM | CC50 (OVCAR-8; [2]): 8.09 µM | Percent Growth (OVCAR-8; Log10 Concentration −4.0): −84% | Percent Growth (OVCAR-8; Log10 Concentration −5.0): −65% | Percent Growth (OVCAR-8; Log10 Concentration −6.0): 96% | Percent Growth (OVCAR-8; Log10 Concentration −7.0): 101% | Percent Growth (OVCAR-8; Log10 Concentration −8.0): 97% | TGI (A498): 2.79E−6 | GI50 (A498; Homo sapiens): 1.33 µM | CC50 (A498; [2]): 5.87 µM | Percent Growth (A498; Log10 Concentration −4.0): −100% | Percent Growth (A498; Log10 Concentration −5.0): −86% | Percent Growth (A498; Log10 Concentration −6.0): 69% | Percent Growth (A498; Log10 Concentration −7.0): 62% | Percent Growth (A498; Log10 Concentration −8.0): 75% | TGI (ACHN): 3.14E−6 | GI50 (ACHN; Homo sapiens): 1.76 µM | CC50 (ACHN; [2]): 5.6 µM | Percent Growth (ACHN; Log10 Concentration −4.0): −100% | Percent Growth (ACHN; Log10 Concentration −5.0): −100% | Percent Growth (ACHN; Log10 Concentration −6.0): 99% | Percent Growth (ACHN; Log10 Concentration −7.0): 93% | Percent Growth (ACHN; Log10 Concentration −8.0): 98% | TGI (SN12C): 2.99E−6 | GI50 (SN12C; Homo sapiens): 1.41 µM | CC50 (SN12C; [2]): 6.31 µM | Percent Growth (SN12C; Log10 Concentration −4.0): −88% | Percent Growth (SN12C; Log10 Concentration −5.0): −81% | Percent Growth (SN12C; Log10 Concentration −6.0): 73% | Percent Growth (SN12C; Log10 Concentration −7.0): 92% | Percent Growth (SN12C; Log10 Concentration −8.0): 68% | TGI (TK-10): 2.98E−6 | GI50 (TK-10; Homo sapiens): 1.56 µM | CC50 (TK-10; [2]): 5.71 µM | Percent Growth (TK-10; Log10 Concentration −4.0): −89% | Percent Growth (TK-10; Log10 Concentration −5.0): −93% | Percent Growth (TK-10; Log10 Concentration −6.0): 84% | Percent Growth (TK-10; Log10 Concentration −7.0): 83% | Percent Growth (TK-10; Log10 Concentration −8.0): 90% | TGI (DU-145): 3.04E−6 | GI50 (DU-145; Homo sapiens): 1.67 µM | CC50 (DU-145; [2]): 5.51 µM | Percent Growth (DU-145; Log10 Concentration −4.0): −100% | Percent Growth (DU-145; Log10 Concentration −5.0): −100% | Percent Growth (DU-145; Log10 Concentration −6.0): 93% | Percent Growth (DU-145; Log10 Concentration −7.0): 95% | Percent Growth (DU-145; Log10 Concentration −8.0): 103% | TGI (T-47D): 2.91E−6 | GI50 (T-47D; Homo sapiens, T47D): 1.12 µM | CC50 (T-47D; Homo sapiens, T47D, read-out: LC50 (the source's name)): 7.54 µM | Percent Growth (T-47D; Log10 Concentration −4.0): −61% | Percent Growth (T-47D; Log10 Concentration −5.0): −65% | Percent Growth (T-47D; Log10 Concentration −6.0): 56% | Percent Growth (T-47D; Log10 Concentration −7.0): 93% | Percent Growth (T-47D; Log10 Concentration −8.0): 95% | TGI (MDA-MB-468): 2.18E−6 | GI50 (MDA-MB-468; Homo sapiens): 0.979 µM | CC50 (MDA-MB-468; [2]): 4.78 µM | Percent Growth (MDA-MB-468; Log10 Concentration −4.0): −95% | Percent Growth (MDA-MB-468; Log10 Concentration −5.0): −97% | Percent Growth (MDA-MB-468; Log10 Concentration −6.0): 50% | Percent Growth (MDA-MB-468; Log10 Concentration −7.0): 86% | Percent Growth (MDA-MB-468; Log10 Concentration −8.0): 90% | Potency in suppressing cancer cell growth compared with OSU-A9 [1]: significantly higher potency
